# Literature values as cited in patent US6184255A, “Pharmaceutical composition comprising coenzyme Q10” (Kaneka Corporation, priority 1996, dated 2001).
# Conditions: oral, considerably greater amount than actually needed
compound,measurement,value
COC1=C(OC)C(=O)C(C/C=C(\C)CC/C=C(\C)CC/C=C(\C)CC/C=C(\C)CC/C=C(\C)CC/C=C(\C)CC/C=C(\C)CC/C=C(\C)CC/C=C(\C)CCC=C(C)C)=C(C)C1=O [Coenzyme Q10],adverse gastrointestinal reactions,"adverse gastrointestinal reactions such as epigastric discomfort, anorexia, nausea, and diarrheas"
